The values that follow come from US20240327339A1, “COMPOSITIONS AND METHODS FOR TREATING AND PREVENTING VIRAL INFECTIONS” (priority 2021, published 2024).

One experiment relates to Burkholderia. In words: Bacterial replication in macrophage. Conditions: macrophage-associated bacteria.
The test system of a further experiment is SARS-CoV-2. As to conditions: cited from earlier work.
The next experiment has as its system hMPV CAN83 (A2 strain). As to the kind of experiment: hMPV challenge of BALB/c mice. Format: in vivo. Conditions: 24 h prior to or 24 h post infection; lungs 5 dpi; FIGS. 26A-26B. On the procedure: BALB/c mice were prophylactically (24 h prior to) or post-infection (24 h post) (“treatment”) treated with probenecid at the indicated concentrations. Mice (n=5/sex/group) were challenged i.n. with 1e6 PFU hMPV CAN83 (A2 strain). Lungs were collected 5 dpi and a plaque assay performed. The results are illustrated in FIGS. 26A-26B.

The subject of the next experiment is Measles virus. In words: Measles virus syncytia immunostaining. Format: cell-based. On the procedure: Plate 4×10^4/well of Vero-E6 or Hep-2 cells to be 95-100% confluent the next day. The next day make fresh dilutions of Probenecid were made. From a stock concentration of 10 mM in 100% DMSO, dilutions were made with half DMSO and half DMEM with 4% BSA fraction. FBS inhibits some viruses. Media was decanted and dilutions of probenecid were added to cells. Controls: DMSO/Media mixture, Media with no Probenecid, Media with no virus. Probenecid dilutions were left on cells for 24 hrs. After 24 hrs, media was decanted and virus was added (MOI=0.01/well). Virus was diluted to MOI=0.01 per 100 uL with DMEM. Left virus inoculum on cells for 1 hr. After 1 hr, infection media was decanted and replaced with dilutions of Probenecid. For Immunostaining, plates were left for 24 hrs before fixing cells. For Plaque Assays, plates were left for 72 hrs before freezing at −80 C.
The immunostaining protocol generally included fixing cells with 4% formaldehyde in PBS (50 uL) for 15-20 min at room temp, rinsing cells 3× with PBS (100 uL), and optionally storing cells at 4° C. in PBS until ready to stain. Permeabilizing cells with 0.05% TritonX-100 in PBS (100 uL) for 10 min at room temp, rinsing cells 3× with PBS (100 uL), blocking with 3% BSA-PBS (100 uL) for 1 hr at 37° C. or overnight at 4° C. Blocking solution was removed and cells were incubated with primary antibody (mouse mAb uNP, Millipore MAB8906) at 1:10,000 dilution (100 uL) for 1 hour (antibody diluted in 3% BSA-PBS). Cells were washed 3× with KPL Buffer (100 uL), incubated for 45 min with secondary antibody (Goat uMouse conjugated with Alex flour 488) in the dark at 37° C. (antibody diluted in 3% BSA-PBS). Cells were washed 3× with KPL Buffer in the dark (100 uL), rapidly stained with DAPI (1 ug/mL) for 10 min in the dark, washed 3× with PBS in the dark and stored in 200 ul of PBS until visualization.
Experiments were designed to test the prophylactic effect of probenecid on measles virus infection. Cells were infected with measle virus with, or without, probenecid treatment and immunostained for syncytia. […]

The subject of another experiment is A/WSN/33 (H1N1). As to conditions: Perwitasari et al. 2013; cited from earlier work.

Broadly, the IC50 is the concentration needed to halve the response being measured. As to `CCCN(CCC)S(=O)(=O)c1ccc(C(=O)O)cc1` [Probenecid, 4-[(dipropylamino)sulfonyl] benzoic acid], the killing of bacteria entry in the experiment on Burkholderia is listed as “did not kill bacteria”. In the experiment on SARS-CoV-2 (hamsters, 2 mg/kg and 200 mg/kg), the “efficacy at treating SARS-CoV-2” value is “both effective at treating SARS-CoV-2 in hamsters in vivo”. Also, the “effect on virus replication and inflammatory response” value with SARS-CoV-2 (in vitro and pre-clinical hamster studies (WO 2021/207606)) was “block replication of the SARS-CoV-2 virus and the associated acute inflammatory response to the infection”. The “effect on hMPV infection (lung plaque assay)” value with hMPV CAN83 (A2 strain) was “Prophylactically and Therapeutically Reduces Human Metapneumovirus (HMPV) Infection”. In the experiment on Measles virus (1 uM Probenecid, 24 hrs, NP fluorescence stain), the syncytia per well entry was “no syncytia were detected”. For the same compound, in the experiment with Measles virus (Hep-2 cells, other assays), the “concentration also effective on MeV” value was found to be 0.03 UM. Further, the IC50 is 0.8 nM in the experiment on Measles virus (Measles morbillivirus, probenecid dilution assay, FIG. 14A, read-out: IC50 (average syncytia per well)) and 0.5 nM in the experiment with A/WSN/33 (H1N1).
